# Measured values taken from patent publication US11840551B2, “Compositions and methods of modulating the immune response by activating alpha protein kinase 1” (Shanghai Yao Yuan Biotechnology Co., Ltd., priority 2017, dated 2023).
# Experiments:
# ALPK1 [1] = target: T1, ALPK1 (Homo sapiens, UniProt Q96QP1); test: IL8 secretion in HEK293 cells (IL8 ELISA) as indicator of ALPK1 activation; details: for restoration of H1b-ADP's activity in the cell based assay (IL8 secretion): added to the FBS-containing medium, HEK293 cells; for IL8 secretion in HEK293 cells: without FBS, serial dilutions, 4 hours
# Procedure: Phosphatase such as the alkaline phosphatase may be responsible for H1b-ADP hydrolysis. We pre-mixed H1b-ADP with phosphatase inhibitor sodium orthovanadate (Na3VO4) before incubation with FBS. […] We hypothesized that the accumulation of hydrolysis product AMP can inhibit phosphatase activity.
# A number of H1b-ADP derivative compounds were made as described herein and tested for biological activity as agonists of ALPK1 in vitro. In these experiments, serial dilutions of the compounds were added to the tissue culture media of HEK293 cells with (FIG. 27B, FIG. 28B, FIG. 29B) or without (FIG. 26, FIG. 27A, FIG. 28A, FIG. 29A) 10% FBS, as indicated in the figures. After 4 hours, the cell supernatant was collected and analyzed for IL8 concentration using IL8 ELISA (BD) as an indicator of ALPK1 activation.
# [2] = test system: phosphatase activity in the serum; test: Incubation of H1b-ADP with FBS, product analysed by LC-MS; format: in vitro ADME, bovine
# Description: (§1) FBS contains 110-352 μU/ml alkaline phosphatase.
# [3] = test system: bovine alkaline phosphatase; test: Incubation of H1b-ADP with bovine alkaline phosphatase; format: biochemical; details: H1b-ADP incubated with bovine alkaline phosphatase, increasing amount of Na3VO4
# Description: as §1
# CT26 cells = test: CT26 tumor xenograft model, tumor growth (tumor volume); format: in vivo, BALB/c mice; details: Example 18, FIG. 30; 50 nmol, injections at days 7, 9, 11
# Procedure: We used a CT26 tumor xenograft model to test the anti-cancer activity of H1b-ADP. Tumor cells (2×10^5 per 100 uL CT26 cells) were inoculated subcutaneously into the right flank of BALB/c mice. At day 6, mice whose tumors had reached 3-5 mm in diameter were randomized and grouped into three groups (n=8 each group), control, HMP-1bP (580 ug), and H1b-ADP (1.2 ug). Injections were performed using a total volume of 20 uL at days 6, 8, 10, 12, and 14 post inoculation. Tumor volumes were calculated every 2 days from caliper measurements of tumor dimension using the formula (L×W^2)/2, where L is the longer measurement.
# To test whether H1b-ADP could augment an anti-tumor response by a checkpoint inhibitor, we tested the effects of co-administration with an anti-PD1 antibody. Tumor cells (2×10^5 per 100 μL CT26 cells) were inoculated subcutaneously into the left and right flanks of BALB/c mice. At day 7, mice whose tumors had reached 5 mm in diameter were randomized and grouped (n=8 each group) into the following four groups: anti-PD1 antibody; rat IgG; H1b-ADP+rat IgG; H1b-ADP+anti-PD1 antibody. We utilized RMP1-14 as the anti-PD1 antibody (10 mg/kg) and a rat IgG 2a (2A3) as the control IgG. Each of the anti-PD-1 antibody and the control IgG was administered intraperitoneally in a 200 μL volume on days 6, 10, 12, and 17 post-inoculation. H1b-ADP (6.2 μg) was intratumorally injected in a 20 μL volume at day 6, 8, 10, 12, and 15. Tumor volumes were calculated every 2 days from caliper measurements of tumor dimensions using the formula (L×W^2)/2, where L is the longer measurement. The results are shown in FIG. 13A for injected tumors and FIG. 13B for distant tumors. […]
# The experiment was carried out as combo experiments of anti-PD1 except for the following variations. At day 6, mice whose tumors had reached 5 mm in diameter were randomized and grouped into the following four groups: anti-CTLA-4 antibody; rat IgG; H1b-ADP+rat IgG; H1b-ADP+anti-CTLA-4 antibody. We utilized 9D9 (BioxCell) as the anti-CTLA-4 antibody and a rat IgG 2b isotype (MPC-11 clone, BE0086, BioXCell) as the control IgG. Each of the anti-CTLA-4 antibody (25 μg) and the control IgG (25 μg) was administered intraperitoneally in a 200 μL volume on days 6 and 9 post-inoculation. H1b-ADP (6.2 μg) was administered intratumorally in a 20 μL volume on days 6, 7, 9, 11 post-inoculation.
# The experiment was carried out as combo experiments of anti-PD1 except for the following variations. At day 6, mice whose tumors had reached 5 mm in diameter were randomized and grouped into the following four groups: c-di-AM(PS)2; PBS; H1b-ADP; H1b-ADP+c-di-AM(PS)2. We utilized c-di-AM(PS)2 as the STING agonist. […]
# ALPK1 [4] = target: T1, ALPK1; test: In vitro kinase assay of ALPK1-dependent TIFA phosphorylation; format: biochemical; details: FIG. 7, chemically-synthesized compounds
# Procedure: We performed an in vitro kinase assay with H1b-ADP and H1b-ADP-6L along with ALPK1 protein (2 nM), and TIFA protein (1.6 uM) in kinase buffer containing 50 uM ATP. TIFA phosphorylation was analyzed by denaturing gel electrophoresis followed by western blotting using an anti-phosphothreonine antibody. H1b-ADP or H1b-ADP-6L was added at 2 nM, 0.4 nM, 80 pM, 16 pM, and 3 pM.
# To test this, we performed an in vitro kinase reaction for ALPK1-dependent TIFA phosphorylation in the presence of either HBP or HIdA purified from E. coli containing inactivated HIdE, or in the presence of HBP and HIdA purified from the same HIdE wild-type E. coli used in the previous experiments. Phosphorylated TIFA (three concentrations, 1%, 0.2% and […]) was detected as described above by denaturing gel electrophoresis followed by Western analysis.
# ALPK1 [5] = target: T1, ALPK1; test: IL-8 and TNFα mRNA expression in HEK293 cells with control or ALPK1-directed siRNA (qPCR); format: cell-based; set-up: silence ALPK1 expression in HEK293 cells; endogenous in cells; host or cells: HEK293; details: control vs ALPK1-directed siRNA, 4 hours, HBP 500, 100, 20 uM, HMP-1bP 500, 100 uM, H1b-ADP 100, 20, 4, 0.8 nM
# Procedure: To test whether HBP, HMP-1bP, and H1b-ADP were able to induce cytokine expression in an ALPK1 dependent manner, we used an ALPK1-directed small interfering RNA (siRNA) to silence ALPK1 expression in HEK293 cells. Cells were plated (1×10^4 cells/well) into 96-well plates and transfected with either control siRNA or ALPK1-directed siRNA according to the manufacturer's protocols (Lipofectamine™ RNAiMax™, Invitrogen 13778075). Following 2 days of culture, either (1) HBP (500 uM, 100 uM, 20 uM, FIG. 2A-2B) (2) HMP-1bP (500 uM, 100 uM, FIG. 3A-3B), (3) H1b-ADP (100 nM, 20 nM, 4 nM, 0.8 nM, FIG. 4A-4B) was added to culture medium and cells were harvested 4 hours later.
# ALPK1 [6] = target: T1, ALPK1; test: Thermal shift assay (SYPRO Orange) for binding to ALPK1; details: ALPK1 7 uM; 1, 5, 25, 125 uM compound; H1b-ADP shift at 5, 25 and 125 uM
# Description: The thermal shift assay is widely used to determine the binding of a molecule to a protein of interest. The assay is based on the increase in thermal energy required for denaturation of a protein where another molecule is bound to the protein. SYPRO Orange is a fluorescent compound used in the detection of thermal shift. SYPRO Orange binds to hydrophobic surfaces of the protein, and water strongly quenches its fluorescence. When the protein unfolds, the exposed hydrophobic surfaces bind the dye, resulting in an increase in fluorescence. When another molecule is bound to the protein, an increase in the temperature required for unfolding of the protein is observed.
# This assay system was used to determine whether or not chemically synthesized HBP, HMP-1bP, and H1b-ADP directly bind to ALPK1. […] Only H1b-ADP induced a shift of more than 1 degree, at each of the three highest concentrations tested, 5 uM, 25 uM, and 125 uM.
# ALPK1 [7] = target: T1, ALPK1; test: Cell-free kinase assay of ALPK1 autophosphorylation (Western, anti-phospho-threonine); format: biochemical; details: 2 nM ALPK1 with ATP, 25° C., 1 h; H1b-ADP 10, 1, 0.2 nM; HBP and HMP-1bP 1, 10, 100 nM
# Procedure: ALPK1 activation results in its autophosphorylation. Accordingly, we next asked whether the binding of H1b-ADP to ALPK1 was sufficient to induce ALPK1 autophosphorylation. Phosphorylation assays were performed according to standard protocols. Briefly, ALPK1 was incubated (2 nM, 25° C., 1 h) in assay buffer (20 μl, 25 mM HEPES pH 7.5, 50 mM KCl, 0.1 mM EDTA, 0.1 mM EGTA, 2 mM DTT, 1.5 mM CaCl2, 10 mM MgCl2) with ATP and chemically synthesized HBP, HMP-1bP, or H1b-ADP followed by denaturing gel electrophoresis and Western analysis with an anti-phospho-threonine antibody (CST) to detect autophosphorylation of ALPK1. […] The range of concentrations of HBP and HMP-1bP used in this assay (1 nM, 10 nM, 100 nM) was 10-fold higher than that used for H1b-ADP.
# [8] = test system: Cxcl1, Cxcl11, IL1b, and IL6 in mouse liver and lung tissue; test: Tissue expression of chemokines and cytokines after subcutaneous injection (qPCR); format: in vivo, C57 mice; details: subcutaneous, 2, 10, 50, 200 nmol tested, tissue harvested three hours later
# Procedure: In additional experiments, Compound 1 was injected subcutaneously into 7 week old C57 mice at concentrations of 2, 10, 50, and 200 nmol. Tissue was harvested three hours later and RNA extracted. Quantitative PCR (qPCR) was performed to determine the tissue expression levels Cxcl1, Cxcl11, IL1b, and IL6 in mouse liver (FIG. 32A) and lung (FIG. 32B) tissue. Additional chemokines and cytokines were assayed in the lung tissue.
# T1 sequence (Q96QP1 whole entry): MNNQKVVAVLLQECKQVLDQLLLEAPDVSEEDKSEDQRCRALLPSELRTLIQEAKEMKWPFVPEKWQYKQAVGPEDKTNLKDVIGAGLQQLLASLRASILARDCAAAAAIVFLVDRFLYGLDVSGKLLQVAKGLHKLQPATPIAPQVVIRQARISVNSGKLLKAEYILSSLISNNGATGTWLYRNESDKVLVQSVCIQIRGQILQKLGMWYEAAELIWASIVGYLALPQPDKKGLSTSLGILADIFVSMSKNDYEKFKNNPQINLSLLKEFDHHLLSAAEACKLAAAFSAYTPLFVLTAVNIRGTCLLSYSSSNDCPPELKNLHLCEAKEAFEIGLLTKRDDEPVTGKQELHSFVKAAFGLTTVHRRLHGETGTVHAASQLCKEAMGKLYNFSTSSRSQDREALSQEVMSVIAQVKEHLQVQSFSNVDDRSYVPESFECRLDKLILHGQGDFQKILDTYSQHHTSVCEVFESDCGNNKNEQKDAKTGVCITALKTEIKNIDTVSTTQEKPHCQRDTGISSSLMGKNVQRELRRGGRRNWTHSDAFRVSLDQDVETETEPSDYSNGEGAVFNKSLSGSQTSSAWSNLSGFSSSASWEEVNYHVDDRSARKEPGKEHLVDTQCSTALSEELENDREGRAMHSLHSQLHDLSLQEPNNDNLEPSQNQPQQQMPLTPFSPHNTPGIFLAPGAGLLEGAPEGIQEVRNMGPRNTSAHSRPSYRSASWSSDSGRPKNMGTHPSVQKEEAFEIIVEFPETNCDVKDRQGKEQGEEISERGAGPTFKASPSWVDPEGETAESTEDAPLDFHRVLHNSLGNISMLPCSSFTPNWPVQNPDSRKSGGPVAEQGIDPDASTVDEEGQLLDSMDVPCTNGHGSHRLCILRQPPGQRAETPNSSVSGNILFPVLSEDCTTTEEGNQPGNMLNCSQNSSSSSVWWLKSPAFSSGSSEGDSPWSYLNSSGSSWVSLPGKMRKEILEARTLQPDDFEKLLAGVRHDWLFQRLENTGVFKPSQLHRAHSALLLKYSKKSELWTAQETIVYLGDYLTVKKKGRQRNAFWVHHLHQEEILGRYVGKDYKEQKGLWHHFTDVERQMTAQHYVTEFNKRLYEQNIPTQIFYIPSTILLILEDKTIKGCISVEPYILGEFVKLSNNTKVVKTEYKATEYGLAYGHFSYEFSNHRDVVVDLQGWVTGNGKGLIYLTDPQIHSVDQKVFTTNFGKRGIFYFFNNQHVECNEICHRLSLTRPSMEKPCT
smiles,measurement,setting,value
"[Na+].[Na+].[Na+].[O]=[V]([O-])([O-])[O-] [Na3VO4, sodium orthovanadate]",restoration of H1b-ADP's activity in the cell based assay (IL8 secretion),ALPK1 [1],could restore H1b-ADP's activity in the cell based assay
same,H1b-ADP hydrolysis in FBS,[2]; H1b-ADP pre-mixed with 1 mM Na3VO4 before incubation with FBS,effectively inhibited H1b-ADP hydrolysis
same,phosphatase activity on H1b-ADP,[3],the phosphatase activity was blocked by increasing amount of Na3VO4
"Nc1ncnc2c1ncn2[C@@H]1O[C@H](COP(=O)(O)O)[C@@H](O)[C@H]1O [AMP, reference compound]",restoration of H1b-ADP's activity in the cell based assay (IL8 secretion),ALPK1 [1],could restore H1b-ADP's activity in the cell based assay
same,phosphatase activity in serum (H1b-ADP hydrolysis),[2]; pre-treatment of H1b-ADP with AMP before serum incubation,inhibited phosphatase activity and the inhibition was AMP dose-dependent
"Nc1ncnc2c1ncn2[C@@H]1O[C@H](COP(=O)(O)OP(=O)(O)O[C@@H]2OC([C@H](O)CO)[C@@H](O)C(O)C2O)C(F)C1O (stereo in doubt) [Compound 2, Adenosine-3′-fluoro-5′-(D-glycero-β-D-mannoheptopyranosyl) diphosphate]",tumor growth,CT26 cells,reduced tumor growth
same,IL8 secretion in HEK293 cells,ALPK1 [1],activate IL8 secretion
"O=P(O)(O)OC[C@@H](O)[C@H]1O[C@@H](OP(=O)(O)O)[C@@H](O)[C@@H](O)[C@@H]1O [HBP, D-glycero-β-D-manno-heptose 1,7-bisphosphate]",phosphorylation of the ALPK1 substrate TIFA,ALPK1 [4],TIFA is phosphorylated only in the presence of H1b-ADP
same,IL-8 mRNA expression,ALPK1 [5],increased in an ALPK1-dependent manner
same,TNFα mRNA expression,ALPK1 [5],increased in an ALPK1-dependent manner
same,thermal shift of ALPK1,ALPK1 [6],Neither HBP nor HMP-1bP were able to induce a thermal shift
same,autophosphorylation of ALPK1,ALPK1 [7],not HBP or HMP-1bP induces ATP-dependent autophosphorylation
"CC(=O)OC[C@@H](OC(C)=O)[C@H]1O[C@@H](OP(=O)(O)OP(=O)(O)OC[C@H]2O[C@@H](n3cnc4c(N)ncnc43)[C@H](O)[C@@H]2F)[C@@H](OC(C)=O)[C@@H](OC(C)=O)[C@@H]1OC(C)=O [Compound 1, (2S,3S,4S,5R,6R)-2-(((((((2R,3S,4S,5R)-5-(6-amino-9H-purin-9-yl)-3-fluoro-4-hydroxytetrahydrofuran-2-yl)methoxy)(hydroxy)phosphoryl)oxy)(hydroxy)phosphoryl)oxy)-6-((R)-1,2-diacetoxyethyl)tetrahydro-2H-pyran-3,4,5-triyl triacetate]",dose that activates an inflammatory response in liver tissue,[8],2 nmol
same,dose that activates an inflammatory response in lung tissue,[8],200 nmol
same,tumor growth,CT26 cells,reduced tumor growth
same,IL8 secretion in HEK293 cells,ALPK1 [1],activate IL8 secretion
